In publication PMC3129366 (Chemico-biological interactions, 2011):

Tests used:
Rabbit CYP2E1 = Rabbit CYP2E1 (Oryctolagus cuniculus, UniProt P08682); test: Inhibition of p-nitrophenol hydroxylation by purified rabbit CYP2E1; assay type: biochemical
CYP2E1 [1] = biological target: T1, CYP2E1 (Rattus norvegicus, UniProt P05182, species not given); test: Inhibition of chlorzoxazone 6-hydroxylation in CYP2E1 liver microsomes; details: human, microsomes, chlorzoxazone metabolism
CYP2E1 [2] = biological target: T1, CYP2E1; test: in vitro; details: human, microsomes
CYP2E1 [3] = biological target: CYP2E1 (Rattus norvegicus, UniProt P05182); test: Inhibition of chlorzoxazone 6-hydroxylation in CYP2E1 liver microsomes; details: chlorzoxazone metabolism; for pKi: Log (1/Ki)
CYP2E1 (Rattus norvegicus, UniProt P05182), sequence (P05182 2-493): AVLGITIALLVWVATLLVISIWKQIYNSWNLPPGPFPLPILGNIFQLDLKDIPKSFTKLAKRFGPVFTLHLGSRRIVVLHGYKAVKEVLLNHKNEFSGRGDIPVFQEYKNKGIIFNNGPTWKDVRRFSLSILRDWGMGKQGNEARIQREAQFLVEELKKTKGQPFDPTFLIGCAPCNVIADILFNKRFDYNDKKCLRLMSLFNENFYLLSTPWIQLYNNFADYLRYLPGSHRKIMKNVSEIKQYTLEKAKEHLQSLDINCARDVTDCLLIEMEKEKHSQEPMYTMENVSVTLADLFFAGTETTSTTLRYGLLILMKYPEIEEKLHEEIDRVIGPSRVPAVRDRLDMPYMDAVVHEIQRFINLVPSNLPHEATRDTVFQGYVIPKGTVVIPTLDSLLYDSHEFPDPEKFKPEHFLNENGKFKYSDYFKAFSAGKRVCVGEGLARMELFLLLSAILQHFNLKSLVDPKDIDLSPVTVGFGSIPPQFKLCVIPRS

[4] = Ki, substituted pyrazoles, purified rabbit CYP2E1, p-nitrophenol as substrate
[5] = pH 7.4, pKi±stdev, Table 3 test set

T1 sequence (P05182 2-493): as above
Rabbit CYP2E1, sequence (P08682 whole entry): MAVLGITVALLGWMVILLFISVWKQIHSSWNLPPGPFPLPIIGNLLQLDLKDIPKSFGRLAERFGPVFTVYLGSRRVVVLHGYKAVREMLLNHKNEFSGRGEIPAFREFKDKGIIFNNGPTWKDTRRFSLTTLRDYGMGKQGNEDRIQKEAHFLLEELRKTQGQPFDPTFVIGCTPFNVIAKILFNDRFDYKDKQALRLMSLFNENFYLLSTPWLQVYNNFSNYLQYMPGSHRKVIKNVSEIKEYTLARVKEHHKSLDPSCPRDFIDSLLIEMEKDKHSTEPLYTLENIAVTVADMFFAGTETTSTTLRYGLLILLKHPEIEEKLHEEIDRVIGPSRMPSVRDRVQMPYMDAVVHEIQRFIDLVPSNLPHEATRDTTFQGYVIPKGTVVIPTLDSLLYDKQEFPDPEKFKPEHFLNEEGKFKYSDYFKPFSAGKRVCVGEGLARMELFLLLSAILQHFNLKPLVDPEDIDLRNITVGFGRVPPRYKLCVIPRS

Compound O=[N+]([O-])c1cn[nH]c1 [4-nitropyrazole] has a Ki (Rabbit CYP2E1; [4]) of 21 µM.
With Cn1ccnc1 [1-methylimidazole] the Ki at 10 min (CYP2E1 [1]; pH 7.4, pKi, Log (1/Ki)) was 6.31 µM.
Compound Ic1cn[nH]c1 [4-iodopyrazole] has a Ki (Rabbit CYP2E1; [4]) of 1 µM.
In the case of Oc1ccc2ccccc2n1 [2-hydroxyquinoline], the Ki at 10 min (CYP2E1 [2]; pH 7.4, Ki) is reported as 931 µM, the Ki at 10 min (CYP2E1 [2]; pH 7.4, pKi) is reported as 1000 µM and the Ki at 10 min (CYP2E1 [2]; pH 7.4, pKi±stdev) is reported as 1000 µM.
With Oc1ccnc2ccccc12 [4-hydroxyquinoline] the Ki at 10 min (CYP2E1 [2]; pH 7.4, Ki) was 592 µM and the Ki at 10 min (CYP2E1 [2]; pH 7.4, pKi) was 631 µM.
With Cc1cnc2ccccc2c1 [3-methylquinoline] the Ki at 10 min (CYP2E1 [1]; pH 7.4, pKi, Log (1/Ki)) was 100 µM.
CCCc1cn[nH]c1 [4-propylpyrazole] gave a Ki (Rabbit CYP2E1; [4]) of 0.16 µM and a Ki (Rabbit CYP2E1; pKi±stdev, Table 3 test set, substituted pyrazole, purified rabbit CYP2E1, p-nitrophenol) of 0.158 µM.
CCCCCc1cn[nH]c1 [4-pentylpyrazole] gave a Ki (Rabbit CYP2E1; [4]) of 0.06 µM.
In the case of O=C(n1ccnc1)C(F)(F)F [1-(trifluoroacetyl)-imidazole], the Ki at 10 min (CYP2E1 [1]; pH 7.4, pKi, Log (1/Ki)) is reported as 251 µM.
Cc1n[nH]cc1Br [4-bromo-3-methylpyrazole] was tested, and the Ki (Rabbit CYP2E1; [4]) was 3 µM.
CCCOc1cn[nH]c1 [4-O-propylpyrazole] was tested, and the pKi (Rabbit CYP2E1; Log (1/Ki), substituted pyrazoles, purified rabbit CYP2E1, p-nitrophenol) was 6.1 and the Ki (Rabbit CYP2E1; substituted pyrazoles, purified rabbit CYP2E1, p-nitrophenol as substrate) was 0.79 µM.
Work on COC(=O)c1cccnc1 [methyl nicotinate] yielded a Ki at 10 min (CYP2E1 [1]; pH 7.4, pKi, Log (1/Ki)) of 20 µM.
c1ccncc1 [pyridine] was tested, and the Ki at 10 min (CYP2E1 [1]; pH 7.4, pKi, Log (1/Ki)) was 12.6 µM.
For c1ccc2ncccc2c1 [quinoline], the Ki at 10 min (CYP2E1 [1]; pH 7.4, pKi, Log (1/Ki)) was 63.1 µM and the Ki at 10 min (CYP2E1 [1]; [5]) was 63.1 µM.
In the case of COC(=O)c1ccncc1 [methyl isonicotinate], the pKi (CYP2E1 [3]) is reported as 5.6 and the “pKi±stdev” value (CYP2E1 [3]; Table 3 test set) is reported as 5.6±0.1.
Compound CCCCn1ccnc1 [N-(n-butyl)imidazole] has a pKi (CYP2E1 [3]) of 6.2.
Oc1cccc2cccnc12 [8-hydroxyquinoline] was tested, and the Ki at 10 min (CYP2E1 [1]; pH 7.4, pKi, Log (1/Ki)) was 79.4 µM.
With Cc1cccc(C)n1 [2,6-lutidine] the Ki at 10 min (CYP2E1 [1]; pH 7.4, pKi, Log (1/Ki)) was 398 µM.
O=[N+]([O-])c1c[nH]cn1 [4-nitroimidazole] was tested, and the Ki at 10 min (CYP2E1 [1]; pH 7.4, pKi, Log (1/Ki)) was 12.6 µM and the Ki at 10 min (CYP2E1 [1]; [5]) was 12.6 µM.
Work on Cc1cc[nH]n1 [3-methylpyrazole] yielded a Ki (Rabbit CYP2E1; [4]) of 5.4 µM.
c1cn[nH]c1 [pyrazole] gave a pKi (CYP2E1 [3]) of 4.4.
Work on Oc1ccc2ncccc2c1 [6-hydroxyquinoline] yielded a Ki at 10 min (CYP2E1 [2]; pH 7.4, Ki) of 218 µM and a Ki at 10 min (CYP2E1 [2]; pH 7.4, pKi) of 200 µM.
OCc1c[nH]cn1 [4-hydroxymethylimidazole] showed a Ki at 10 min (CYP2E1 [1]; pH 7.4, pKi, Log (1/Ki)) of 501 µM.
Compound CC(=O)Nc1cn[nH]c1 [4-acetylaminopyrazole] has a Ki (Rabbit CYP2E1; [4]) of 5750 µM.
